Drawing on PMC3028607, this text covers ring closure, isolated yield for 19 compounds.

The nature of the data set: SmI2-mediated 8-endo-trig ketyl-alkene radical cyclisation (C-C bond between ketone carbon and distal styrene carbon); SmI2 2.2 equiv, HMPA 18 equiv, t-BuOH 2 equiv; substrate added over 2 h, then 16 h. The following applies: THF, 15.0 mM, 22.0 °C.

For `COC(=O)C1Cc2ccccc2CC(C)(C)C(C)(O)C1` (stereo not shown) [41 (no 8-ring; ketyl-aryl 42 14% + 43 7%)], for the setting “from COC(=O)C(CC(C)=O)Cc1ccccc1C=C(C)C, 8-membered ring”, the ring closure, isolated yield came to 0%.
Turning to `COC(=O)C1Cc2ccccc2CC(C)C(C)(O)C1` (stereo not shown) [18 (to 19; 20% ketyl-aryl product 20)], under “from C/C=C/c1ccccc1CC(CC(C)=O)C(=O)OC, 8-membered ring”, the ring closure, isolated yield is 54%.
Turning to `COC(=O)C1Cc2ccccc2C(C)CC(O)(C(C)C)C1(C)C` (stereo not shown) [14 (only fragmentation 15, 58%)], for the setting “from C=C(C)c1ccccc1CC(C(=O)OC)C(C)(C)C(=O)C(C)C, 8-membered ring”, the ring closure, isolated yield came out at 0%.
For the compound `COC(=O)C1Cc2ccccc2CC(C)C(O)(C(C)C)C1` (stereo not shown) [24 (to 25)], the ring closure, isolated yield (from C/C=C/c1ccccc1CC(CC(=O)C(C)C)C(=O)OC, 8-membered ring) was 63%.
Regarding `CCC1(O)CC(C(=O)OC)Cc2ccccc2CC1C` (stereo not shown) [21 (to 22; 6% fragmentation 23)], the ring closure, isolated yield (from C/C=C/c1ccccc1CC(CC(=O)CC)C(=O)OC, 8-membered ring) was determined as 56%.
Take `COC(=O)C1Cc2ccccc2CC(c2ccccc2)C(O)(C(C)C)C1` (stereo not shown) [36 (to 37; 20% SM)]: for the setting “from COC(=O)C(CC(=O)C(C)C)Cc1ccccc1/C=C/c1ccccc1, 8-membered ring”, the ring closure, isolated yield turned out to be 47%.
Consider `COC(=O)[C@@H]1Cc2ccccc2CC(C)C2(O)CCCC[C@@H]12` (stereo partly shown), for which the ring closure, isolated yield (from C/C=C/c1ccccc1C[C@@H](C(=O)OC)[C@@H]1CCCCC1=O, 8-membered ring) is 11%.
As to `COC(=O)C1Cc2ccccc2C(C)CC(O)(C(C)C)C1` (stereo not shown) [11 (to 12 54% + 13 28%)], the ring closure, isolated yield (from C=C(C)c1ccccc1CC(CC(=O)C(C)C)C(=O)OC, 8-membered ring) amounted to 82%.
Turning to `COC(=O)C1Cc2ccccc2CC(C)C(O)(C(C)C)C1` (stereo not shown) [30 (to 31; 31% fragmentation 32; 32% SM)], the ring closure, isolated yield (from C/C=C\c1ccccc1CC(CC(=O)C(C)C)C(=O)OC, 8-membered ring) turned out to be 8%.
For `COC(=O)[C@@H]1Cc2ccccc2C(C)CC2(O)CCCC[C@@H]12` (stereo partly shown) [7a (to 8)], where the note is “from C=C(C)c1ccccc1C[C@@H](C(=O)OC)[C@@H]1CCCCC1=O, 8-membered ring”, the ring closure, isolated yield was 63%.
In the case of `COC(=O)[C@@H]1Cc2ccccc2CC(c2ccccc2)C2(O)CCCC[C@H]12` (stereo partly drawn) [38b (no 8-ring; 7-exo lactone 40, 63%)], for the setting “from COC(=O)[C@H](Cc1ccccc1/C=C/c1ccccc1)[C@H]1CCCCC1=O, 8-membered ring”, the ring closure, isolated yield amounted to 0%.
Consider `COC(=O)C1Cc2ccccc2CC(C2CC2)C(O)(C(C)C)C1` (stereo not shown) [33 (to 34; 47% fragmentation 35)], for which the ring closure, isolated yield (from COC(=O)C(CC(=O)C(C)C)Cc1ccccc1/C=C/C1CC1, 8-membered ring) amounted to 24%.
Consider `COC(=O)C1Cc2ccccc2C(C)CC(C)(O)C1` (stereo not shown) [4 (to 9 40% + 10 38%)], for which the ring closure, isolated yield (from C=C(C)c1ccccc1CC(CC(C)=O)C(=O)OC, 8-membered ring) was 78%.
For `COC(=O)[C@@H]1Cc2ccccc2CC(C)C2(O)CCCC[C@H]12` (stereo partly shown) [26b (to lactone 29; 27% fragmentation 23; 40% SM)], the ring closure, isolated yield (from C/C=C/c1ccccc1C[C@@H](C(=O)OC)[C@H]1CCCCC1=O, 8-membered ring) stood at 9%.
As for `COC(=O)[C@@H]1Cc2ccccc2CCC2(O)CCCCC[C@H]12` (stereo partly shown) [5b (no product; 62% SM recovered)], for the setting “from C=Cc1ccccc1C[C@@H](C(=O)OC)[C@H]1CCCCCC1=O, 8-membered ring”, the ring closure, isolated yield came to 0%.
With `COC(=O)[C@@H]1Cc2ccccc2CCC2(O)CCCCC[C@@H]12` (stereo partly shown) [5a (to 6; 23% SM recovered)], for the setting “from C=Cc1ccccc1C[C@@H](C(=O)OC)[C@@H]1CCCCCC1=O, 8-membered ring”, the ring closure, isolated yield came to 42%.
In the case of `COC(=O)C1Cc2ccccc2C(c2ccccc2)CC(O)(C(C)C)C1` (stereo not shown) [16 (to 17a 37% + 17b 22%)], the ring closure, isolated yield (from C=C(c1ccccc1)c1ccccc1CC(CC(=O)C(C)C)C(=O)OC, 8-membered ring) was found to be 59%.
For `COC(=O)[C@@H]1Cc2ccccc2CC(c2ccccc2)C2(O)CCCC[C@@H]12` (stereo partly drawn) [38a (no 8-ring; 7-exo product 39, 44%)], the ring closure, isolated yield (from COC(=O)[C@H](Cc1ccccc1/C=C/c1ccccc1)[C@@H]1CCCCC1=O, 8-membered ring) was determined as 0%.
With `COC(=O)C1Cc2ccccc2CC(C)C(O)(C(C)C)C1(C)C` (stereo not shown) [(E)-1-propenyl analogue of 14 (only fragmentation)], where the note is “from C/C=C/c1ccccc1CC(C(=O)OC)C(C)(C)C(=O)C(C)C, 8-membered ring”, the ring closure, isolated yield is 0%.
